Read-outs that look alike come from different tables or passages of the source.
What was measured:
[1] = system: Erysiphe cichoracearum; assay: Fungicidal activity: Powdery Mildew of Cucumber (ERYSCI); assay type: in vivo; conditions: 100 ppm, 1 DP (1 Day Protectant)
[2] = system: Blumeria graminis f. sp. hordei; assay: Fungicidal activity: Barley Powdery Mildew (ERYSGH); assay type: in vivo; conditions: 100 ppm, 1 DP (1 Day Protectant)
Procedure: Technical grades of materials were dissolved in acetone, which were then mixed with nine volumes of water containing 110 ppm Triton X-100. The fungicide solutions were applied onto wheat seedlings using an automated booth sprayer to run-off. All sprayed plants were allowed to air dry prior to further handling. All fungicides were evaluated using the aforementioned method for their activity vs. all target diseases, unless stated otherwise. Wheat leaf blotch and brown rust activity were also evaluated using track spray applications, in which case the fungicides were formulated as EC formulations, containing 0.1% Trycol 5941 in the spray solutions. Wheat plants (variety Yuma) were grown from seed in a greenhouse in 50% mineral soil/50% soil-less Metro mix until the first leaf was fully emerged, with 7-10 seedlings per pot. These plants were inoculated with an aqueous spore suspension of Septoria tritici either prior to or after fungicide treatments. After inoculation the plants were kept in 100% relative humidity (one day in a dark dew chamber followed by two to three days in a lighted dew chamber at 20° C.) to permit spores to germinate and infect the leaf. The plants were then transferred to a greenhouse set at 20° C. for disease to develop. When disease symptoms were fully expressed on the 1st leaves of untreated plants, infection levels were assessed on a scale of 0 to 100 percent disease severity. Percent disease control was calculated using the ratio of disease severity on treated plants relative to untreated plants. Evaluation of Fungicidal Activity: Barley Powdery Mildew (Blumeria graminis f. Sp. hordei; Synonym: Erysiphe graminis f. Sp. hordei; Bayer Code […]) Barley seedlings (variety Harrington) were propagated in soil-less Metro mix, with each pot having 8 to 12 plants, and used in the test when first leaf was fully emerged. Test plants were inoculated by dusting with infected stock plants 24 hr after fungicide treatments. After inoculation the plants were kept in a greenhouse set at 20° C. for disease to develop. Fungicide formulation, application and disease assessment on the sprayed leaves followed the procedures as described in the Example A.

[3] = system: Mycosphaerella graminicola; Anamorph: Septoria tritici; assay: Fungicidal activity: Leaf Blotch of Wheat (SEPTTR); assay type: in vivo; conditions: Zymoseptoria tritici, wheat leaf blotch; for pest or weed control at 121.5 g/ha: Low Volume (121.5 g/H); for pest or weed control at 100 µg/mL: High Volume (100 ppm)
How it was run: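 Compounds were dissolved in acetone, diluted with nine volumes of water containing 110 ppm Triton X-100, and sprayed to run-off on first-leaf Yuma wheat seedlings inoculated with Septoria tritici spores before or after treatment. Plants were held in a dew chamber, then a 20° C. greenhouse. Percent control was derived from disease severity relative to untreated plants.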

[4] = system: Cercospora beticola; assay: Fungicidal activity: Leaf Spot of Sugar Beets (CERCBE); assay type: in vivo; conditions: 100 ppm, 1 DP (1 Day Protectant), sugar beet
Procedure: Technical grades of materials were dissolved in acetone, which were then mixed with nine volumes of water containing 110 ppm Triton X-100. The fungicide solutions were applied onto wheat seedlings using an automated booth sprayer to run-off. All sprayed plants were allowed to air dry prior to further handling. All fungicides were evaluated using the aforementioned method for their activity vs. all target diseases, unless stated otherwise. Wheat leaf blotch and brown rust activity were also evaluated using track spray applications, in which case the fungicides were formulated as EC formulations, containing 0.1% Trycol 5941 in the spray solutions. Wheat plants (variety Yuma) were grown from seed in a greenhouse in 50% mineral soil/50% soil-less Metro mix until the first leaf was fully emerged, with 7-10 seedlings per pot. These plants were inoculated with an aqueous spore suspension of Septoria tritici either prior to or after fungicide treatments. After inoculation the plants were kept in 100% relative humidity (one day in a dark dew chamber followed by two to three days in a lighted dew chamber at 20° C.) to permit spores to germinate and infect the leaf. The plants were then transferred to a greenhouse set at 20° C. for disease to develop. When disease symptoms were fully expressed on the 1st leaves of untreated plants, infection levels were assessed on a scale of 0 to 100 percent disease severity. Percent disease control was calculated using the ratio of disease severity on treated plants relative to untreated plants. Evaluation of Fungicidal Activity: Leaf Spot of Sugar Beets (Cercospora beticola; Bayer Code CERCBE) Sugar beet plants (variety HH88) were grown in soil-less Metro mix and trimmed regularly to maintain a uniform plant size prior to test. Plants were inoculated with a spore suspension 24 hr after fungicide treatments. Inoculated plants were kept in a dew chamber at 22° C. for 48 hr then incubated in a greenhouse set at 24° C. under a clear plastic hood with bottom ventilation until disease symptoms were fully expressed. Fungicide formulation, application and disease assessment on the sprayed leaves followed the procedures as described in the Example A.

[5] = system: Magnaporthe grisea; Anamorph: Pyricularia oryzae; assay type: in vivo; conditions: 100 ppm, 1 DP (1 Day Protectant), rice
[6] = 24 h, 1 Day Protectant, read-out: SEPTTR 1 DP disease control
[7] = 72 h, 3 Day Curative, read-out: SEPTTR 3 DC disease control

Row | Structure (SMILES) | ERYSCI disease control rating [1] | ERYSGH disease control rating [2] | pest or weed control at 121.5 g/ha [3, 6] [%] | pest or weed control at 121.5 g/ha [3, 7] [%] | CERCBE disease control rating [4] | pest or weed control at 100 µg/mL [3, 6] [%] | pest or weed control at 100 µg/mL [3, 7] [%] | PYRIOR disease control rating [5] | melting point [°C]
1 | CCCC[C@@H]1[C@@H](Cc2ccc(C(F)(F)F)cc2)COC[C@H](NC(=O)c2nccc(OC)c2OCOC(C)=O)C(=O)O[C@H]1C [compound 16] | A (>70) | A (>70) | > 70 | > 70 | A (>70) | – | – | – | –
2 | CCCC[C@@H]1[C@@H](Cc2ccccc2)COC[C@H](NC(=O)c2nccc(OC)c2OCOC(=O)C(C)C)C(=O)O[C@H]1C [compound 1] | A (>70) | A (>70) | > 70 | > 70 | A (>70) | > 70 | > 70 | A (>70) | –
3 | COc1ccnc(C(=O)N[C@H]2COC[C@H](Cc3ccccc3)[C@@H](Cc3ccccc3)[C@H](C)OC2=O)c1OC(C)=O [compound 27] | B (≤70) | B (≤70) | > 70 | > 70 | A (>70) | – | – | A (>70) | 67 to 71
4 | COc1ccnc(C(=O)N[C@H]2COC[C@H](c3ccccc3)[C@@H](c3ccccc3)[C@H](C)OC2=O)c1OCOC(C)=O [compound 7] | A (>70) | A (>70) | > 70 | > 70 | A (>70) | > 70 | > 70 | A (>70) | 59 to 64
5 | COc1ccnc(C(=O)N[C@H]2COC[C@H](Cc3ccccc3)[C@@H](Cc3ccccc3)[C@H](C)OC2=O)c1OCOC(C)=O [Cmpd. 3, ((2-(((3S,7R,8R,9S)-7,8-dibenzyl-9-methyl-2-oxo-1,5-dioxonan-3-yl)carbamoyl)-4-methoxypyridin-3-yl)oxy)methyl acetate] | – | A (>70) | > 70 | > 70 | – | > 70 | > 70 | A (>70) | 56 to 60
6 | COc1ccnc(C(=O)N[C@H]2COC[C@H](CC3CC3)[C@@H](c3ccccc3)[C@H](C)OC2=O)c1OC(C)=O [compound 100] | A (>70) | A (>70) | > 70 | > 70 | A (>70) | – | – | A (>70) | –

— US9955691B2, “Macrocyclic picolinamides as fungicides” (DOW AGROSCIENCES LLC, priority 2014, dated 2018)
